According to patent publication EP1551873B1, “AGONISTS AND ANTAGONISTS OF THE HUMAN ODORANT RECEPTOR OR17-4 AND USES THEREOF” (Symrise AG, priority 2002, dated 2004):
“Also recorded” adds a separate entry of the source.

System: hOR17-4
Assay: Ca2+ imaging (Fura-2) of HEK293 cells transiently transfected with pOR17-4 (chimeric receptor)
Assay type: cell-based, human
Excerpt: Es wird vermutet, dass die Transmembrandomänen III-VI eine Bindungstasche zum Binden von Agonisten bilden (s. S. Firestein, Nature 413, 211-218 (2001)). Um diese Vermutung für den Rezeptor hOR17-4 zu überprüfen wurde ein für die vermuteten Transmembrandomänen III bis VI codierender Abschnitt der für hOR17-4 codierenden cDNA in einem Shuttle-Expressions-Vektor (pOLF-Express) kloniert. Der Expressionsvektor pOLF-Express umfasst die für die N- und C-terminalen Regionen von hOR17-40 codierenden DNA-Abschnitte (C. H. Wetzel et al., Journal of Neuroscience 19, 7426-7433 (1999)). Das resultierende chimäre Rezeptorprotein sollte die Agonistenspezifität des vollständigen Rezeptors hOR17-4 besitzen.
HEK293-Zellen wurden in MEM (Life Technologies, Gaithersburg, MD), das mit 10 % hitze-inaktiviertem fetalem Kälber-Serum angereichert war, in einem Inkubator bei 37 °C in einer Atmosphäre aus 95 % befeuchteter Luft und 5 % CO2 kultiviert. Semikonfluente Zellen wurden in 35 mm Gefäßen (Falcon) mittels Calciumphosphat-Präzipitation (Zufall et al., PNAS 90 (1993), 9335-9339) unter Verwendung jeweils des Plasmids pOR17-4 bzw. pOR17-4v transfiziert. Die Transfektionseffizienz - typischerweise 10 % - wurde histochemisch mit dem Reporterplasmid pCH110 (Pharmacia, Uppsala, Schweden) überprüft, das für β-Galactosidase codiert. Messungen wurden 48 bis 72 Stunden nach der Transfektion durchgeführt. Die Transfektionseffizienz kann mit einem für GFP, einem grün fluoreszierenden Protein, codierenden Reporterplasmid ebenfalls überprüft werden.
Die Rezeptor-Aktivierung in HEK293-Zellen führt zu einem vorübergehenden Anstieg der cytosolischen Ca^2+-Konzentration, die auf der Einzelzell-Ebene unter Verwendung des Ca^2+-sensitiven Farbstoffes Fura-2 (Fura-2 AM, Molecular Probes Europe BV, Leiden, Niederlande; Ladekonzentration 3-4 µg/ml; Ladezeit ca. 30 min) und ratiofluorometrischen Bildgebungstechniken (Imaging-Experimente) detektiert wurden.
Die Ca^2+-imaging-Experimente wurden auf dem Träger eines invertierten Zeiss-Mikroskopes durchgeführt, das für die ratiofluorometrische Bildgebung mit einer Xenon-Bogenlampe, einem Vielfach-Wellenlängen-Illuminations-System POLYCH-ROM II zur Anregung, einer gekühlten charge-coupled device (CCD)-Kamera und einer WinNT-basierten T.I.L.L.-Vision-Software zum Sammeln und raum- und zeitabhängigen Quantifizieren Ca^2+-abhängiger Fluoreszenz-Signale (F340/F380-Verhältnis) ausgestattet war. HEK293-Zellen wurden mit 32-facher, Spermazellen mit 63-facher Vergrößerung beobachtet.
HEK293- und Spermazellen wurden unter Verwendung eines speziellen Applikations-Systems, das es gestattete, vorübergehend alle Zellen im Blickfeld aus einem von sechs benutzergewählten Kapillarröhrchen zu überspülen, Geruchs- und/oder Wirkstoffen (Testlösungen) ausgesetzt. Der Wechsel zwischen den Testlösungen erfolgte nahezu sofort; auch trat im Wesentlichen keine Wirkungsverzögerung nach dem Wechsel auf, weil die Röhrchenspitzen zum optischen Feld eng benachbart waren. Zwischen den Applikationen von Testlösungen überspülte ein Pufferlösungsstrom kontinuierlich alle Zellen im Gefäß, um jedwede potentielle Hintergrund-Anreicherung von Testlösungen (Geruchs- bzw. Wirkstoffen) zu minimieren. Alle Lösungen wurden bei Raumtemperatur appliziert. Alle verwendeten Geruchsstoffe stammten von Dr. T. Gerke, Henkel KGaA, Düsseldorf, FRG, andere Wirkstoffe wurden von Sigma gekauft. Zur Zusammensetzung der Henkel 100-Mischung vergleiche C. H. Wetzel et al., Journal of Neuroscience 19, 7426-7433 (1999).
Alle auf die potentielle Aktivierung von hOR17-4 untersuchten Geruchsstoffe wurden wenigstens in drei verschiedenen Reihen von Transfektionsexperimenten getestet. […] Geruchsstoffe, die nicht in wenigstens 2 % aller HEK293-Zellen messbare Ca^2+-Konzentrationssteigerung auslösten, wurden nicht zu den hOR17-4-spezifischen Agonisten gezählt, ebenso diejenigen wenigen der untersuchten Komponenten, die ein unspezifisches Ca^2+-Signal in fast jeder Zelle hervorriefen. […]

SMILES | Induktion einer Ca^2+-Konzentrationssteigerung (agonist concentration reduced to 10^-6 M) | Wirksamkeit (Rangordnung der Agonisten) (ranking by amplitude normalised to ATP and by responding cells relative to Cyclamal ca. 5 mM) | Rezeptoraktivierung (Ca^2+-Antwort) (single odorant about 500 µM, pOR17-4-transfected HEK293 cells) | Zellen, die auf Bourgeonal antworteten, mit vollständig inhibierter Rezeptoraktivierung (pre-incubation 30 s or longer before Bourgeonal) [von 28] | Einfluss auf die hOR17-4-Rezeptoraktivierung durch Bourgeonal (single components of Mix D, pre-incubation)
CC(C)(C)c1ccc(CCC=O)cc1 [Bourgeonal] | deutlich | wirksamere Agonisten; also recorded: der wirksamste getestete Agonist | Fähigkeit der Substanzen, den Rezeptor zu aktivieren |  | 
CCCCCCCCCCC=O [n-Undecanal] |  |  |  | 26 | vollständig inhibiert
